What all share (format): biochemical
In one assay the target is T1, MST1 (Homo sapiens, UniProt Q13043).
T1 construct: purchased Carna Biosciences
Nature of the assay: Selectivity profiling, QuickScout STK Screening Panel. On the procedure:
(§1) The inhibitory effects of Compound 1 against 20 tyrosine kinases and 30 serine/threonine kinases were investigated using QuickScout™ TK and STK Screening Panel (Carna Biosciences, Kobe Japan). […] The results reveal that Compound 1 inhibits TNIK_N more potently (IC50; 9 nM) than the other 50 kinases.

The next assay concerns the target T2, PKACa (Homo sapiens, UniProt P17612).
T2 construct: purchased Carna Biosciences
Described as above. On the procedure:
as §1

Another assay deals with RAF1 (Homo sapiens, UniProt P04049). Described as above. On the procedure: as §1
The target of a further assay is T3, CK1e (Homo sapiens, UniProt P49674).
T3 construct: purchased Carna Biosciences
The description is as above. On the procedure:
as §1

The next assay concerns the target T4, IKKb (Homo sapiens, UniProt O14920).
T4 construct: purchased Carna Biosciences
The description is as above. On the procedure: as §1

The next assay has as its target T5, MAPKAPK2 (Homo sapiens, UniProt P49137).
T5 construct: purchased Carna Biosciences
The assay is described as above. On the procedure:
as §1

A further assay concerns the target T6, PDK1 (Homo sapiens, UniProt O15530).
T6 construct: purchased Carna Biosciences
Described as above. The procedure: as §1

The target of the next assay is T7, CHK1 (Homo sapiens, UniProt O14757).
T7 construct: purchased Carna Biosciences
The assay is described as above. The procedure: as §1

The target of the next assay is T8, JNK2 (Homo sapiens, UniProt P45984).
T8 construct: purchased Carna Biosciences
The assay is described as above. On the procedure: as §1

A further assay deals with T9, p70S6K (Homo sapiens, UniProt P23443).
T9 construct: purchased Carna Biosciences
Described as above. On the procedure:
as §1

Another assay addresses T10, PKD2 (Homo sapiens, UniProt Q9BZL6).
T10 construct: purchased Carna Biosciences
Described as above. The procedure:
as §1

Another assay has as its target T11, SGK (Homo sapiens, UniProt O00141).
T11 construct: purchased Carna Biosciences
The assay is described as above. The procedure:
as §1

The target of a further assay is T12, PKCa (Homo sapiens, UniProt P17252).
T12 construct: purchased Carna Biosciences
The description is as above. On the procedure: as §1

The target in assay [1] is T13, human TNIK (N-terminal segment, TNIK_N) (Homo sapiens, UniProt Q9UKE5).
T13 construct: made in house; host or cells: Sf21 insect cells (baculovirus)
Nature of the assay: TNIK kinase assay (mobility shift). As to conditions: stated in text of Test Example 2. From the text: A cDNA encoding the N-terminal segment (TNIK_N, residues 1-314) containing the kinase domain of human TNIK (NM_015028.1) was amplified from cDNA mixture synthesized from human tissue (Biochain) by PCR using the following primers: 5′-[…]-3′ ([SEQ ID NO:1]: forward primer, the underlined nucleotides indicates the location of a EheI site); 5′-[…]-3′ ([SEQ ID NO:2]: reverse primer, the underlined nucleotides indicates the location of a NotI site). The cDNA was subcloned into baculovirus transfer vector pFastBac_GSTb that includes protease cleavage site and glutathione S-transferase purification tag (GST-tag). The plasmid was purified and the insertion of the pFastBac_GSTb-TNIK_N was confirmed by DNA sequencing. Then E. coli DH10Bac competent cells were transformed with the plasmid to prepare the recombinant bacmid according to the instructions for the Bac-to-Bac™ baculovirus expression systems (Invitrogen). The Sf9 cells were transfected with the recombinant bacmid containing pFastBac_GSTb-TNIK_N using Cellfectin Reagent (Invitrogen) in SF-900II serum free media (Invitrogen). The viral supernatant was collected from the medium 72 h after transfection. The virus was amplified three times by infecting actively growing Sf9 or Sf21 cells in Grace's insect media (Invitrogen) supplemented with 10% FCS and an antibiotic-antimycotic reagent (Invitrogen) for 72 h at 27° C. in T-flask or roller bottles. The titer of amplified TNIK_N virus was estimated at 2.36×10^8 pfu/ml by using BacPAK™ Baculovirus Rapid Titer kit (Clontech).
Log-phase Sf21 cells (2×10^6 cells/ml) in the Grace's insect media were infected with the recombinant baculovirus at MOI of 3.0 and incubated in roller bottles (250 ml media per bottle) for 72 h at 27° C., after which, the cells were collected by centrifugation, and the cell pellet washed with cold PBS and kept at −80° C. until purification. The following purification procedures were carried out at 4° C. The frozen cells were thawed on ice and lysed in lysis buffer (50 mM Tris-HCl, pH 7.5, 150 mM NaCl, 1% Nonidet P-40, 5 mM DTT, 0.5 mM EDTA, 0.5 mM EGTA) supplemented with 1 mM phenylmethansulfonylfluoride, 2 μg/ml leupeptin, 2 μg/ml aprotinin, 1 mM NaF, 100 μM sodium orthovanadate, and 1 μM cantharidin by sonication. The suspended lysate was cleared by centrifugation at 9000 g for 20 min and the supernatant was incubated for 1 h with glutathione Sepharose beads (GE Healthcare). The beads were suspended in buffer-H (50 mM Tris-HCl, pH 7.5, 1 M NaCl, 1 mM DTT, 0.5 mM EDTA, 0.5 mM EGTA and 0.05% Brij35) and washed with buffer-H followed by buffer-L (50 mM Tris-HCl, pH 7.5, 150 mM NaCl, 1 mM DTT, 0.5 mM EDTA, 0.5 mM EGTA, 0.05% Brij35) in an Econo-pack column (BIO-RAD). The bound TNIK_N was eluted with elution buffer (50 mM Tris-HCl, pH 8.0, 150 mM NaCl, 1 mM DTT, 10% glycerol, 0.5 mM EDTA, 0.5 mM EGTA and 5 mM reduced glutathione). The eluted fractions were collected and determined the protein concentration by Bradford reagent (BIO-RAD). The TNIK_N fractions were pooled and desalted using 10DG column (BIORAD) equilibrated with the storage buffer (50 mM Tris-HCl, pH 7.5, 150 mM NaCl, 1 mM DTT, 10% glycerol, 0.05% Brij35). The purified TNIK_N was characterized by electrophoresis using 4-20% polyacrylamide gels and matrix-assisted laser desorption/ionization reflection time-of-flight (MALDI-TOF) mass spectrometry on a Voyager-DE RP MALDI/TOF (Applied Biosystems). TNIK_N was confirmed by the molecular weight and MASCOT Peptide Mass Fingerprint.
The kinase assays were conducted in a 20 μl volume using 384-well plates (Greiner). The reaction mixture consists of compound or vehicle (1% DMSO), 0.08 ng/μl TNIK_N, 1 μM FITC-labeled substrate peptides, FITC-x-Lys-Tyr-Lys-Thr-Leu-Arg-Gln ([SEQ ID NO.3], x: ε-aminocaproic acid), 20 mM Hepes, pH 7.5, 0.01% Triton X-100, 5 mM MgCl2, 25 μM ATP and 2 mM DTT. As blank, TNIK_N was excluded from the reaction mixture of vehicle (1% DMSO). […]

T1 sequence (Q13043 whole entry): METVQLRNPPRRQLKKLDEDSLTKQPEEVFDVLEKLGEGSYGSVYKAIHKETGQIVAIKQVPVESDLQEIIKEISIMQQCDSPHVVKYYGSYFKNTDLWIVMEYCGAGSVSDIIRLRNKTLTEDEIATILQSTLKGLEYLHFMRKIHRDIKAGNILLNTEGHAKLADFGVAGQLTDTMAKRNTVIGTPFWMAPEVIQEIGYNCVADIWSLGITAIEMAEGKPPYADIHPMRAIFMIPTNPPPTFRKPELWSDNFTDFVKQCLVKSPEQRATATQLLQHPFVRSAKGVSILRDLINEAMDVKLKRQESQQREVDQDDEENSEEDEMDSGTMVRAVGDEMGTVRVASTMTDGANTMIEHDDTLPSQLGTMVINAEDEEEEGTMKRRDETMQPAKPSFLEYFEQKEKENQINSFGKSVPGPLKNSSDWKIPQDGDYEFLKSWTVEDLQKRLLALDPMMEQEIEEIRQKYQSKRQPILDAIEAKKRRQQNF
T8 sequence (P45984 whole entry): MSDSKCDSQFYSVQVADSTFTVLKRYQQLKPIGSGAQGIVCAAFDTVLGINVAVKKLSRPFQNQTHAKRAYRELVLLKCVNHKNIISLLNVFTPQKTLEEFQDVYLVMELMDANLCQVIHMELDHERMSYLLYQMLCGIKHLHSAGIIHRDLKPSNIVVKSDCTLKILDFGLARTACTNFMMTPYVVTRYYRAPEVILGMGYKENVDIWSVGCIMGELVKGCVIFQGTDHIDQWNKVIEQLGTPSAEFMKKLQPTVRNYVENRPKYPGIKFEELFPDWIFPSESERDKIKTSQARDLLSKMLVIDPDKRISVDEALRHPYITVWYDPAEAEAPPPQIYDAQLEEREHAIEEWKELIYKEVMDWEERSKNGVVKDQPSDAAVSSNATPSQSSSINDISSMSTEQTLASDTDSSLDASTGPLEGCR
T10 sequence (Q9BZL6 whole entry): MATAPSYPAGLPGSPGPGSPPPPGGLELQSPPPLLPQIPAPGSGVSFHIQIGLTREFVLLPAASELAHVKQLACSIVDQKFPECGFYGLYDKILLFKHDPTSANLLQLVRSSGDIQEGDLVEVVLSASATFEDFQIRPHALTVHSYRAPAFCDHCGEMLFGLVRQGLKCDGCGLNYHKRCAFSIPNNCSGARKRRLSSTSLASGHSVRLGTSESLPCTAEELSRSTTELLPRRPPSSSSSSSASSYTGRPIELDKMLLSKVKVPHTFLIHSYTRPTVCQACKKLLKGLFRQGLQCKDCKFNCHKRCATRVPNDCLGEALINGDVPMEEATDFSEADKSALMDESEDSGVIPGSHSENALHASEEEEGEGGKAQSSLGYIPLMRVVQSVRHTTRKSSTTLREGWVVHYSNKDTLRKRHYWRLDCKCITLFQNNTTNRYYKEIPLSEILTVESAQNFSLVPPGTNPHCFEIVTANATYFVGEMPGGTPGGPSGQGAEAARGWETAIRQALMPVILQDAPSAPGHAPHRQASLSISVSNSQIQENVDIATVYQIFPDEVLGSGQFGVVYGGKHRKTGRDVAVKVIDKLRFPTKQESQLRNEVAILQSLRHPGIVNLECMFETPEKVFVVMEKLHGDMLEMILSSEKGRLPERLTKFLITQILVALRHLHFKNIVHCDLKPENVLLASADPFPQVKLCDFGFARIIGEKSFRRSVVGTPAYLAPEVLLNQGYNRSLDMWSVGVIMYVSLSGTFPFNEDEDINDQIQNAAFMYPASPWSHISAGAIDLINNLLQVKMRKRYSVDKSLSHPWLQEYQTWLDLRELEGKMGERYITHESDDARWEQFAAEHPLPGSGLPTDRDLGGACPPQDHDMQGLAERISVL
T7 sequence (O14757 whole entry): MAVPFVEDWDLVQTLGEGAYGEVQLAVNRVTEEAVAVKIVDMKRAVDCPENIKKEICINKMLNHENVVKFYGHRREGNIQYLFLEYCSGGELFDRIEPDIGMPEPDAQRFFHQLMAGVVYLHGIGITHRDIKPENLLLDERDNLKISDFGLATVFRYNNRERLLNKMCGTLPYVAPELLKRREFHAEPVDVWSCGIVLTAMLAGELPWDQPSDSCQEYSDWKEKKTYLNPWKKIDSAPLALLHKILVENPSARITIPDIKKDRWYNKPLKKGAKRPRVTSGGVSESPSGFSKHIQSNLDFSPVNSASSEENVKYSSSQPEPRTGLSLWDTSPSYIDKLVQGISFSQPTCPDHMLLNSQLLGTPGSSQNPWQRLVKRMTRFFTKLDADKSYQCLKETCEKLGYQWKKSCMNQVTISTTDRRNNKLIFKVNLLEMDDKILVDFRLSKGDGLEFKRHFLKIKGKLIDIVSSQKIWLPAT
T11 sequence (O00141 whole entry): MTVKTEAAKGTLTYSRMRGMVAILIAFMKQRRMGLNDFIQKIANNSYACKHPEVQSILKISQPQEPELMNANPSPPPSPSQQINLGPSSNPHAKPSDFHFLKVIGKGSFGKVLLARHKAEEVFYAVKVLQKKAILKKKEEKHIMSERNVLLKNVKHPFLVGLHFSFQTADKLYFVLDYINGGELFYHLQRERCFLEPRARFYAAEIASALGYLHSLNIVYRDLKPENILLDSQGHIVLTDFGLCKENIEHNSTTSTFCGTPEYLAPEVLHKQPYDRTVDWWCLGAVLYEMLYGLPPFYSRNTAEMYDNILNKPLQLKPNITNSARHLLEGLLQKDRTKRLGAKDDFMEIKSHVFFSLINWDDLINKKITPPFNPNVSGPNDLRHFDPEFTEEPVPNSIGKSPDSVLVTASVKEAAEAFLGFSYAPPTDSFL
T6 sequence (O15530 whole entry): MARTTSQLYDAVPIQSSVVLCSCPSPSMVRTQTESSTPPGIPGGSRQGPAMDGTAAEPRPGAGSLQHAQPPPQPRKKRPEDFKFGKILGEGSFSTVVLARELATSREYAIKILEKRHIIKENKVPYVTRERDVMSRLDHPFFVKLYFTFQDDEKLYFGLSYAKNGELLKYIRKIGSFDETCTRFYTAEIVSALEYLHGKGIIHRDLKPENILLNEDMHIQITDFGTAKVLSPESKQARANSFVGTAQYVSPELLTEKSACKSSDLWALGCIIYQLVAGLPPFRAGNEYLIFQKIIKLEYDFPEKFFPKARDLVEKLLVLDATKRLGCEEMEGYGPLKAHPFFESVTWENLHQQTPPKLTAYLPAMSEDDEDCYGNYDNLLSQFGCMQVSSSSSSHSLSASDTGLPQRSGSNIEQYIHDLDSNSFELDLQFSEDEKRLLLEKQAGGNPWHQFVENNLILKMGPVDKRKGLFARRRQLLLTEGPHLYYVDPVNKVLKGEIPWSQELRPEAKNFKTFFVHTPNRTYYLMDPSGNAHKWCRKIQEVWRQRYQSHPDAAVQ
T9 sequence (P23443 whole entry): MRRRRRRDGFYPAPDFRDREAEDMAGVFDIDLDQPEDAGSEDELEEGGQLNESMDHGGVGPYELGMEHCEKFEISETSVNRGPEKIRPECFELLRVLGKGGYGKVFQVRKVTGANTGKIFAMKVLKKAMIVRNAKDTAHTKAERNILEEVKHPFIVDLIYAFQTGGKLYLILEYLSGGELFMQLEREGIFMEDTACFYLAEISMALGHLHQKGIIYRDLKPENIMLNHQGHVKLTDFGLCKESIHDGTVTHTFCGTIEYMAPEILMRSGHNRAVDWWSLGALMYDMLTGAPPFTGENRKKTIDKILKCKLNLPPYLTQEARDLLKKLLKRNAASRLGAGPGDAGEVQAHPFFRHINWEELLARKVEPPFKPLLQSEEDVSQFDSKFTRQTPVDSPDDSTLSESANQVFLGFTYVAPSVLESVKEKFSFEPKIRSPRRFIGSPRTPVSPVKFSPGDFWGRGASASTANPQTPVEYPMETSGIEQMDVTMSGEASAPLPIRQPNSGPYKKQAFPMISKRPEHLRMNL
T3 sequence (P49674 whole entry): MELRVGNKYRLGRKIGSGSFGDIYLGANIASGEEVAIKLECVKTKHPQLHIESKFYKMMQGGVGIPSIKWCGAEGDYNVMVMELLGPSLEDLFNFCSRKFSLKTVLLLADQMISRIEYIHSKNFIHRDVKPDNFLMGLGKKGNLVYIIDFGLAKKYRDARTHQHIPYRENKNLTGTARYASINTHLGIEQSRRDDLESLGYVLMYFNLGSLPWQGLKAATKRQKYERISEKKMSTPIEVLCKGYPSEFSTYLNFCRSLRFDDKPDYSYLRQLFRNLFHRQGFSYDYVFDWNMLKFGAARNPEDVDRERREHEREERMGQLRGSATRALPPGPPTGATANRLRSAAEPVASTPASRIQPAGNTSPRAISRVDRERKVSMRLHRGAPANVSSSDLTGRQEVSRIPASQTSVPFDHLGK

As a reminder, the IC50 is the midpoint of a concentration-inhibition curve. As to `CC(=O)Nc1ccc(C(=O)Nc2sc(Nc3ccccc3)nc2C(N)=O)cc1` [Compound 1, 5-(4-acetamidobenzamido)-2-(phenylamino)thiazole-4-carboxamide], the IC50 against MST1, at PKACa, against RAF1, at CK1e, against IKKb and at MAPKAPK2 was over 300 nM throughout. In addition, the IC50 on PDK1, at CHK1, at JNK2, against p70S6K, against PKD2 and on SGK was over 300 nM each time. Besides, the IC50 against PKCa was over 300 nM; in [1] it was 9 nM.

These data come from US20100216795A1, “TNIK INHIBITOR AND THE USE” (priority 2008, published 2010).
